# Source: patent US8168651B2, “Protein kinase modulators” (Cylene Pharmaceuticals, Inc., priority 2008, dated 2012)
# Experiments:
# Assay in all cases: Standardized radiometric kinase assays, percentage of activity at 0.5 μM;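 also: Read-out is ³³P-labelled substrate protein phosphorylated by each kinase, captured on filters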
# [1] = target: each individual kinase of the panel (Homo sapiens, UniProt Q12851)
# [2] = target: each individual kinase of the panel (Homo sapiens, UniProt O96017)
# [3] = target: each individual kinase of the panel (Homo sapiens, UniProt P29320)
# [4] = target: each individual kinase of the panel (Homo sapiens, UniProt P54753)
# [5] = target: each individual kinase of the panel (Homo sapiens, UniProt P05129)
# [6] = target: each individual kinase of the panel (Homo sapiens, UniProt P52333)
# [7] = target: each individual kinase of the panel (Homo sapiens, UniProt O43353)
# [8] = target: each individual kinase of the panel (Homo sapiens, UniProt Q9UIK4)
# [9] = target: each individual kinase of the panel (Homo sapiens, UniProt Q14289)
# [10] = target: each individual kinase of the panel (Homo sapiens, UniProt P10721, D816V)
# [11] = target: each individual kinase of the panel (Homo sapiens, UniProt O94806)
# [12] = target: each individual kinase of the panel (Homo sapiens, UniProt P51956)
# [13] = target: each individual kinase of the panel (Homo sapiens, UniProt O96017, I157T)
# [14] = target: each individual kinase of the panel (Homo sapiens, UniProt Q05513)
# [15] = target: each individual kinase of the panel (Homo sapiens, UniProt Q96PF2)
# [16] = target: each individual kinase of the panel (Homo sapiens, UniProt Q09013)
# [17] = target: each individual kinase of the panel (Homo sapiens, UniProt P11362, V561M)
# [18] = target: each individual kinase of the panel (Homo sapiens, UniProt O96017, R145W)
# [19] = target: each individual kinase of the panel (Homo sapiens, UniProt P53667)
# [20] = target: each individual kinase of the panel (Homo sapiens, UniProt P52564)
# [21] = target: each individual kinase of the panel (Homo sapiens, UniProt Q9Y6E0)
# [22] = target: each individual kinase of the panel (Homo sapiens, UniProt P09769)
# [23] = target: each individual kinase of the panel (Homo sapiens, UniProt Q86UE8)
# [24] = target: each individual kinase of the panel (Homo sapiens, UniProt P31751)
# [25] = target: each individual kinase of the panel (Homo sapiens, UniProt Q13237)
# [26] = target: each individual kinase of the panel (Homo sapiens, UniProt P36896)
# [27] = target: each individual kinase of the panel (Homo sapiens, UniProt Q00535)
# [28] = target: each individual kinase of the panel (Homo sapiens, UniProt P21802, N549H)
# [29] = target: each individual kinase of the panel (Homo sapiens, UniProt P42684)
# [30] = target: each individual kinase of the panel (Homo sapiens, UniProt Q9BYP7)
# [31] = target: each individual kinase of the panel (Homo sapiens, UniProt O00141)
# each individual kinase of the panel (Homo sapiens, UniProt P09769), sequence (P09769 2-529 limits assumed): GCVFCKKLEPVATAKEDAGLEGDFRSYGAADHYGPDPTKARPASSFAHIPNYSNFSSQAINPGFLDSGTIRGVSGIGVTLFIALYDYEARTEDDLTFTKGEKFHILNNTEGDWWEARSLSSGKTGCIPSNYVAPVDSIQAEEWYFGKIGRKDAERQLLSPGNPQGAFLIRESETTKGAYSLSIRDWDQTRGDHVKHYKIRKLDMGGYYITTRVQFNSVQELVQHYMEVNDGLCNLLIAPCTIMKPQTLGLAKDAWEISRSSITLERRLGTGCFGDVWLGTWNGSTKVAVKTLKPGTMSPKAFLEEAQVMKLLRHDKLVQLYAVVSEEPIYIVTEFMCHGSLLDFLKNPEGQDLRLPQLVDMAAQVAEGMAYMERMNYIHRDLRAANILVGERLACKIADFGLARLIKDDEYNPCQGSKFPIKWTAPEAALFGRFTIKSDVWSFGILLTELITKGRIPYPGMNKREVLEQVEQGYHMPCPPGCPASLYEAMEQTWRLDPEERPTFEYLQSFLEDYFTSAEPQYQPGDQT
# each individual kinase of the panel (Homo sapiens, UniProt P29320), sequence (P29320 21-983 limits assumed): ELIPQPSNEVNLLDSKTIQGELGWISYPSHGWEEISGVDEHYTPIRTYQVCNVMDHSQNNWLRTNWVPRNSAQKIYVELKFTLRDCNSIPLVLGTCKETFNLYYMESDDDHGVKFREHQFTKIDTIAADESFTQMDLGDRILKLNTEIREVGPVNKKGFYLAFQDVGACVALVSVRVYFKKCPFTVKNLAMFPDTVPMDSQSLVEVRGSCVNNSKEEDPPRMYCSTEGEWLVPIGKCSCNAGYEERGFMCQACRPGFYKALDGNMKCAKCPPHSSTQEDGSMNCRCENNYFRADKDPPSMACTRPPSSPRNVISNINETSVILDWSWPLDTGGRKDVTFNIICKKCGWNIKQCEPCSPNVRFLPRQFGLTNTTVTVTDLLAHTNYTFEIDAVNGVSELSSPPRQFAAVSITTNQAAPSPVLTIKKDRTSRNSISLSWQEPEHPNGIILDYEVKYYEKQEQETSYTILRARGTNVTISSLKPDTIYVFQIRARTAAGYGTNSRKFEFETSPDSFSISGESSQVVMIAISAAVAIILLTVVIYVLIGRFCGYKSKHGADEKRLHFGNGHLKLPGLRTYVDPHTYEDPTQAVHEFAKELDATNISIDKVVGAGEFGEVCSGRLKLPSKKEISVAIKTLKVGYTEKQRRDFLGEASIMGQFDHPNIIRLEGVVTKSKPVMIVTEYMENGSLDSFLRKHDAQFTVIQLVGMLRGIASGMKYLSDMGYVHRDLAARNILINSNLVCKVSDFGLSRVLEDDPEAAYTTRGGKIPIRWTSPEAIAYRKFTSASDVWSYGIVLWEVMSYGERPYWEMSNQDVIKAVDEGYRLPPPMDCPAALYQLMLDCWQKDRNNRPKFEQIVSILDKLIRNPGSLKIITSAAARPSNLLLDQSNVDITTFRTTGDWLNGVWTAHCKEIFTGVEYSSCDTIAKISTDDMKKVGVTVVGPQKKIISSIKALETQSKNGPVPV
# each individual kinase of the panel (Homo sapiens, UniProt P21802, N549H), sequence (P21802 22-821 N549H limits assumed): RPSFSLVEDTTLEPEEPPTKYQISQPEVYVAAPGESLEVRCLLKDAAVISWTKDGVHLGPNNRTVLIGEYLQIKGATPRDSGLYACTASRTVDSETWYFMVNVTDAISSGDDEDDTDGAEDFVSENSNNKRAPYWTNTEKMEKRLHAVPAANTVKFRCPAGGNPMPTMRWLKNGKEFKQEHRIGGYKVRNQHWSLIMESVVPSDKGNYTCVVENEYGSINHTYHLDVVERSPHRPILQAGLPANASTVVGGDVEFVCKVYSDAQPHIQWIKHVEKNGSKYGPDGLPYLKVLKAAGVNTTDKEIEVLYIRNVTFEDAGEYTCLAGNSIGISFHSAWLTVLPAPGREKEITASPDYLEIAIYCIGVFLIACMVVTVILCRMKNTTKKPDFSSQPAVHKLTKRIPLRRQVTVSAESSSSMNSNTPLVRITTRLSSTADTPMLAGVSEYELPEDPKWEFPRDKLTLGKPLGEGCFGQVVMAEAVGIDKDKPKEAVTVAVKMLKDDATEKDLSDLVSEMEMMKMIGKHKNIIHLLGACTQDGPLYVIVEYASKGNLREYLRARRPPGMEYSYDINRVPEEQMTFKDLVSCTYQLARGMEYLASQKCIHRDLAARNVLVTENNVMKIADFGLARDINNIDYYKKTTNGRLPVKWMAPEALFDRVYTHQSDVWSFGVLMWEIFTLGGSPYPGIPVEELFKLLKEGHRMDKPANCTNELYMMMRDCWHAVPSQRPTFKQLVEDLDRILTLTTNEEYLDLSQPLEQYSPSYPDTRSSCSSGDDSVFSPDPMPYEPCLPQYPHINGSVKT
# each individual kinase of the panel (Homo sapiens, UniProt P54753), sequence (P54753 34-998 limits assumed): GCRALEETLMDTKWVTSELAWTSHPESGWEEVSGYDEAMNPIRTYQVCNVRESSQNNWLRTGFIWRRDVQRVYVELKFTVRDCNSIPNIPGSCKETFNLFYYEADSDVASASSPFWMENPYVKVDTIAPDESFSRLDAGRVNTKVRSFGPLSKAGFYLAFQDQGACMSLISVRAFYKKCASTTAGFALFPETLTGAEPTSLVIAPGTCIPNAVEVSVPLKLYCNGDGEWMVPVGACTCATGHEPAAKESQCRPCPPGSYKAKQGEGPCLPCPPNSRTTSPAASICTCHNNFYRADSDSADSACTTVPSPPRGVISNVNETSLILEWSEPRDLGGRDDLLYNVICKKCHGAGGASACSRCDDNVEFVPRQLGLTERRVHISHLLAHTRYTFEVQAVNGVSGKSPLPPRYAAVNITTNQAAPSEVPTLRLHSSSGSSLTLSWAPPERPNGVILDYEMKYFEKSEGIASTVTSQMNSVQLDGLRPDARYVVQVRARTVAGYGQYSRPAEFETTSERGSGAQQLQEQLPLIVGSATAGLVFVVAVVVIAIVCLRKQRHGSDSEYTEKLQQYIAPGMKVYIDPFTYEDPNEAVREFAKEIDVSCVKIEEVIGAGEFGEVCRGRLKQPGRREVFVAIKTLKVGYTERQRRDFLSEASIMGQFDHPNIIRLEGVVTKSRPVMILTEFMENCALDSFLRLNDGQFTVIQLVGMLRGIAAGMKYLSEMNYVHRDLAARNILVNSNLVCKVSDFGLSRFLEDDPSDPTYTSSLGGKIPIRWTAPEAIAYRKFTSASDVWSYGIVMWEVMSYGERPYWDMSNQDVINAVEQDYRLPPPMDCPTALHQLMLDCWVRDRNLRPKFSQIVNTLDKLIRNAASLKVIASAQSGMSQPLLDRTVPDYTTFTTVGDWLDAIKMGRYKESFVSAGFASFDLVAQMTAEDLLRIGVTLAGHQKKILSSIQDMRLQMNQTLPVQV
# each individual kinase of the panel (Homo sapiens, UniProt P42684), sequence (P42684 2-1182 limits assumed): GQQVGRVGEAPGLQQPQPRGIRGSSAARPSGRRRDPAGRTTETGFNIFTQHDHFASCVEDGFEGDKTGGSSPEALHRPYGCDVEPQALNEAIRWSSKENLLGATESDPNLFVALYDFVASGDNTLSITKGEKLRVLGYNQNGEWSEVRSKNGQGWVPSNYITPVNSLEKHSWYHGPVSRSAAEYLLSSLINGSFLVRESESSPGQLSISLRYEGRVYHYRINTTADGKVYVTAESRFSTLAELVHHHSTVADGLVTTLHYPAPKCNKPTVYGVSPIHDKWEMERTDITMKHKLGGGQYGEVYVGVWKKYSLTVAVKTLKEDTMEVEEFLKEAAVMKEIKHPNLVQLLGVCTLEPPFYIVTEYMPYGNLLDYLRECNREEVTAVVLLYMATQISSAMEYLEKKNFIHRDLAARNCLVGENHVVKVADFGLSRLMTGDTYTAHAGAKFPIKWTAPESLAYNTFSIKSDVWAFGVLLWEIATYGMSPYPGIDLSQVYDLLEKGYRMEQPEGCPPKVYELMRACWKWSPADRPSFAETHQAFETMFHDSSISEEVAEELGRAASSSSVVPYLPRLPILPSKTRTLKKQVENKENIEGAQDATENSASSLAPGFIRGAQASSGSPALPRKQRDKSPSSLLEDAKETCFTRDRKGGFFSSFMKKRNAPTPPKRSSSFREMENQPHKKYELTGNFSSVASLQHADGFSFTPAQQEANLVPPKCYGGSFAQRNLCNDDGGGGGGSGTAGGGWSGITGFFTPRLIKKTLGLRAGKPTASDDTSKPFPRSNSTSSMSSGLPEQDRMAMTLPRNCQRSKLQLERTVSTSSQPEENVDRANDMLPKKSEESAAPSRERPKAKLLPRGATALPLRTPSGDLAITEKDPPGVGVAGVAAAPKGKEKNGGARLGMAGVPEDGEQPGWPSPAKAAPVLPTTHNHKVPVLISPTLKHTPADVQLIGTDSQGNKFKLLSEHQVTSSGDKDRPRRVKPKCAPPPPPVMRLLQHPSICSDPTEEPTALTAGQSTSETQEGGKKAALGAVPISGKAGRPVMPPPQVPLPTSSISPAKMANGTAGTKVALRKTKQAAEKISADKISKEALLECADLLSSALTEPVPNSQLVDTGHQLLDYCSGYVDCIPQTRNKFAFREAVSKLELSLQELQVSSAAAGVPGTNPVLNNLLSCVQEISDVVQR
# each individual kinase of the panel (Homo sapiens, UniProt P36896), sequence (P36896 24-505 limits assumed): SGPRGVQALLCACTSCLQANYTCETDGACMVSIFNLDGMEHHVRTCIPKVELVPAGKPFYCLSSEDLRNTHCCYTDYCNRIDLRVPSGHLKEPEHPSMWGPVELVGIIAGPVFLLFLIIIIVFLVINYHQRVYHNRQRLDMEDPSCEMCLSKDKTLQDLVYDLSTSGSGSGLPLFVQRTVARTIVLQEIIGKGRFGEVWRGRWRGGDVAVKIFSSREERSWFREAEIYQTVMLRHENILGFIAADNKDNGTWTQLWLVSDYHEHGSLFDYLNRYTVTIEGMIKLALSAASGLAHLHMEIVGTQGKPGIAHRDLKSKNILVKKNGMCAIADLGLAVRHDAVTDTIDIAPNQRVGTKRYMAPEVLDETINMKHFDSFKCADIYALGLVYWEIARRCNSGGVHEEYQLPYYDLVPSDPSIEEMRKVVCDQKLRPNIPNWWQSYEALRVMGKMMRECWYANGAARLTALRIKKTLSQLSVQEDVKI
structure (smiles),measurement,setting,value
C#Cc1cccc(Nc2nc3cc(C(=O)O)ccc3c3cncnc23)c1 [drawing 1135],GCK percentage of activity,[1],1%
same,CHK2 percentage of activity,[2],5%
same,EPHA3 percentage of activity,[3],−6%
same,EPHB3 percentage of activity,[4],−36%
same,PRKCG percentage of activity,[5],0%
same,JAK3 percentage of activity,[6],8%
same,RIPK2 percentage of activity,[7],2%
same,DAPK2 percentage of activity,[8],91%
same,Pyk2 percentage of activity,[9],−3%
same,cKit(D816V) percentage of activity,[10],2%
same,PRKCN percentage of activity,[11],2%
same,NEK3 percentage of activity,[12],−12%
same,CHK2(1157T) (h) percentage of activity,[13],3%
same,PRKCZ percentage of activity,[14],−9%
same,TSSK2 percentage of activity,[15],−9%
same,DMPK percentage of activity,[16],4%
same,FGFR1 (V561M) percentage of activity,[17],12%
same,CHK2(R145W) (h) percentage of activity,[18],0%
same,LIMK1 percentage of activity,[19],3%
same,MEK6 percentage of activity,[20],6%
same,MST3 percentage of activity,[21],0%
same,FGR percentage of activity,[22],39%
same,TLK2 percentage of activity,[23],8%
same,AKT2 percentage of activity,[24],−10%
same,PRKG2 percentage of activity,[25],2%
same,ALK4 percentage of activity,[26],−15%
same,CDK5/p25 percentage of activity,[27],4%
same,CDK5/p35 percentage of activity,[27],−7%
same,FGFR2 (N549H) percentage of activity,[28],4%
same,ABL2 percentage of activity,[29],2%
same,WNK3 percentage of activity,[30],−17%
same,SGK percentage of activity,[31],−1%
